We go through 26 compounds from patent publication US20240174696A1, “2,8-DIAZASPIRO[4.5]DECANE COMPOUNDS” (Genentech, Inc., priority 2021, published 2024).

Counter-ions that a name gives are not always drawn.

The test deals with Human LATS2 catalytic domain (Homo sapiens (Human), UniProt Q9NRM7). Description: LATS2 High ATP HTRF Assay. The class given is biochemical. To be noted: no asterisk: LATS2 High ATP HTRF Assay, 5000 μM ATP, 0.05 nM LATS2. On the procedure: Human LATS2 catalytic domain which contains the amino acids G553-V1088 (accession NP_055387) was purified in-house. The LATS2 catalytic domain was co-purified with Mob1b (accession NP_775739). The LATS2 biochemical HTRF assay was performed using the HTRF KinEASE-STK S1 Kit (Cisbio, Cat #62ST1PEC), following the protocol from the manufacturer. Compounds were dispensed by the Echo Liquid Handler (Labcyte) into a white 384-well plate (PerkinElmer, Cat #6008289). 3 uL of 2×LATS2 enzyme solution was added to the compounds, following by a 10 minute incubation at room temperature. Then, 2×ATP and STK S1 peptide solution was added to initiate the one hour enzyme reaction at room temperature. The final condition of the reaction was 0.2 nM LATS2, 50 μM ATP, 0.5 μM STK S1 peptide in 50 mM HEPES pH7.2, 10 mM MgCl2, 0.1% BGG, 0.005% Brij-35, 1 mM DTT. The reaction was quenched by adding 6 uL of the detection mixture which contained Streptavidin XL665 and STK Antibody-Cryptate (Cisbio), incubate for 1 hour at room temperature. The HTRF (665 nm/620 nm) signal was read on the Envision plater reader (PerkinElmer). The IC50 values were determined by fitting the % inhibition with a nonlinear four-parameter logistical equation. The Ki values were calculated using the Cheng-Prusoff equation for a competitive inhibitor, IC50═Ki (1+S/Km)+M [E] with ATP Km for LATS2=105 μM.
Human LATS2 catalytic domain, sequence (Q9NRM7 553-1088): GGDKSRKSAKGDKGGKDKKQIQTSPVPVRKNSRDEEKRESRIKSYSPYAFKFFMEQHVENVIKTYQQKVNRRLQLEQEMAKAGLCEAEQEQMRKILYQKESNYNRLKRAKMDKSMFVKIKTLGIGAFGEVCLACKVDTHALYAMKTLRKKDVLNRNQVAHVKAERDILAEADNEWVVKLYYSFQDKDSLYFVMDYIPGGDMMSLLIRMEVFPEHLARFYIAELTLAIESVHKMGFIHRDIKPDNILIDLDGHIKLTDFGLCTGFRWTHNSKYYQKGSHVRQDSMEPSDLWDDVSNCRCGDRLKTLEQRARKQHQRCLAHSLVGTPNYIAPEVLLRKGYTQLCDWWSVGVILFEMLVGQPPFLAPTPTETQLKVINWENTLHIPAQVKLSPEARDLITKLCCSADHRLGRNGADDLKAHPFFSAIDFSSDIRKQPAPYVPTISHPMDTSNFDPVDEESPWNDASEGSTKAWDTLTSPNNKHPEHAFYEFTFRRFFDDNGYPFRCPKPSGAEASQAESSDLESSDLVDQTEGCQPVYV
Human LATS2 catalytic domain, sequence (Q7L9L4 whole entry partner, the tested form may be a part): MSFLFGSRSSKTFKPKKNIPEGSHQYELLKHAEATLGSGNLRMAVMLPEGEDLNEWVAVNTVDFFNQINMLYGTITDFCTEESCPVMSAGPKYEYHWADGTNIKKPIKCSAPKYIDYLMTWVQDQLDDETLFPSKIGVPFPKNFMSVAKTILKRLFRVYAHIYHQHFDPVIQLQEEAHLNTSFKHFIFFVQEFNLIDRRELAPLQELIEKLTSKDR
The LATS2 high ATP HTRF assay was performed using the same protocol as the Standard LATS2 HTRF assay. The final condition of the reaction was 0.05 nM LATS2, 5000 μM ATP, 0.5 μM STK S1 peptide in 50 mM HEPES pH7.2, 10 mM MgCl2, 0.1% BGG, 0.005% Brij-35, 1 mM DTT and the 2 hours enzyme reaction at room temperature.
(In TR-FRET formats the signal depends on donor and acceptor labels being close together.)
For the compound `O[C@H]1CC[C@@H]1N1CCC2(CCN(c3nc(-c4ccncc4)nc4cnccc34)CC2)C1` (single isomer, unassigned) [Compound 178], the Ki (in general, a measure of affinity in units of concentration, obtained from inhibition or displacement) was determined as 0.97 nM.
The figure for `CC(=O)N1CCC2(CCN(c3nc(-c4ccncc4)nc4cnccc34)CC2)C1` [Compound 125, 1-(8-(2-(pyridin-4-yl)pyrido[3,4-d]pyrimidin-4-yl)-2,8-diazaspiro[4.5]decan-2-yl)ethan-1-one] is 16.7 nM; for `c1cc(-c2nc(N3CCC4(CCN(c5cc[nH]n5)C4)CC3)c3ccncc3n2)ccn1` [Compound 139, 4-(2-(1H-pyrazol-3-yl)-2,8-diazaspiro[4.5]decan-8-yl)-2-(pyridin-4-yl)pyrido[3,4-d]pyrimidine] it is 19.1 nM; for `c1ccc(N2CCC3(CCN(c4nc(-c5ccncc5)nc5cnccc45)CC3)C2)cc1` [Compound 140, 4-(2-phenyl-2,8-diazaspiro[4.5]decan-8-yl)-2-(pyridin-4-yl)pyrido[3,4-d]pyrimidine] it is 88.4 nM.
Next, `N#Cc1[nH]ncc1-c1nc(N2CCC3(CCNC3)CC2)c2ccncc2n1` [Compound 155, 4-(4-(2,8-diazaspiro[4.5]decan-8-yl)pyrido[3,4-d]pyrimidin-2-yl)-1H-pyrazole-5-carbonitrile]: 51.4 nM.
Next, `CCC(=O)NCc1cc2c(N3CCC4(CCNC4)CC3)nc(-c3ccncc3)nc2cn1` [Compound 159, N-((2-(pyridin-4-yl)-4-(2,8-diazaspiro[4.5]decan-8-yl)pyrido[3,4-d]pyrimidin-6-yl)methyl)propionamide]: 6.58 nM; `CN(C)C(=O)C1CC2(CCN(c3nc(-c4ccncc4)nc4cnccc34)CC2)CN1` (centres unmarked) [Compound 173, N,N-dimethyl-8-(2-(pyridin-4-yl)pyrido[3,4-d]pyrimidin-4-yl)-2,8-diazaspiro[4.5]decane-3-carboxamide]: 7.4 nM; `O=C(C1CC2(CCN(c3nc(-c4ccncc4)nc4cnccc34)CC2)CN1)N1CCCC1` (centres unmarked) [Compound 174, (8-(2-(pyridin-4-yl)pyrido[3,4-d]pyrimidin-4-yl)-2,8-diazaspiro[4.5]decan-3-yl)(pyrrolidin-1-yl)methanone]: 11.1 nM.
In the case of `O=C(C1CC2(CCN(c3nc(-c4ccncc4)nc4cnccc34)CC2)CN1)N1CCOCC1` (centres unmarked) [Compound 175, morpholino(8-(2-(pyridin-4-yl)pyrido[3,4-d]pyrimidin-4-yl)-2,8-diazaspiro[4.5]decan-3-yl)methanone], the Ki is 22.6 nM.
Next, `N#Cc1cnccc1-c1nc(N2CCC3(CCNC3)CC2)c2ccncc2n1` [Compound 183, 4-(4-(2,8-diazaspiro[4.5]decan-8-yl)pyrido[3,4-d]pyrimidin-2-yl)nicotinonitrile]: 17.5 nM; `Fc1[nH]ncc1-c1nc(N2CCC3(CCNC3)CC2)c2ccncc2n1` [Compound 188, 2-(5-fluoro-1H-pyrazol-4-yl)-4-(2,8-diazaspiro[4.5]decan-8-yl)pyrido[3,4-d]pyrimidine]: 5.96 nM.
Regarding `c1cc(-c2nc(N3CCC4(CCNC4)CC3)c3c(C4CC4)cncc3n2)ccn1` [Compound 191, 5-cyclopropyl-2-(pyridin-4-yl)-4-(2,8-diazaspiro[4.5]decan-8-yl)pyrido[3,4-d]pyrimidine], the affinity corresponds to a Ki of 0.028 nM.
The compound `FC(F)(F)Cc1nccc2c(N3CCC4(CCNC4)CC3)nc(-c3ccncc3)nc12` [Compound 192, 2-(pyridin-4-yl)-4-(2,8-diazaspiro[4.5]decan-8-yl)-8-(2,2,2-trifluoroethyl)pyrido[3,4-d]pyrimidine] returned a Ki of 1.38 nM.
Next, `FC(F)(F)Cc1cc2c(N3CCC4(CCNC4)CC3)nc(-c3ccncc3)nc2cn1` [Compound 193, 2-(pyridin-4-yl)-4-(2,8-diazaspiro[4.5]decan-8-yl)-6-(2,2,2-trifluoroethyl)pyrido[3,4-d]pyrimidine]: 0.041 nM; `Cc1n[nH]cc1-c1nc(N2CCC3(CCN(C)C3)CC2)c2cc(CC(F)(F)F)ncc2n1` [Compound 194, 2-(3-methyl-1H-pyrazol-4-yl)-4-(2-methyl-2,8-diazaspiro[4.5]decan-8-yl)-6-(2,2,2-trifluoroethyl)pyrido[3,4-d]pyrimidine]: 0.12 nM; `CN1CCC2(CCN(c3nc(-c4ccncc4)nc4cnc(CC(F)(F)F)cc34)CC2)C1` [Compound 195, 4-(2-methyl-2,8-diazaspiro[4.5]decan-8-yl)-2-(pyridin-4-yl)-6-(2,2,2-trifluoroethyl)pyrido[3,4-d]pyrimidine]: 0.039 nM.
For `Cc1cnsc1-c1nc(N2CCC3(CCNC3)CC2)c2ccncc2n1` [Compound 244, 5-(4-(2,8-diazaspiro[4.5]decan-8-yl)pyrido[3,4-d]pyrimidin-2-yl)-4-methylisothiazole], the Ki was determined as 13 nM.
The figure for `CC(=O)N1CC(Oc2cncc3nc(-c4ccncc4)nc(N4CCC5(CCN(C)C5)CC4)c23)C1` [Compound 278, 1-(3-((4-(2-Methyl-2,8-diazaspiro[4.5]decan-8-yl)-2-(pyridin-4-yl)pyrido[3,4-d]pyrimidin-5-yl)oxy)azetidin-1-yl)ethan-1-one] is 11 nM.
The figure for `COc1cncc2nc(-c3cn[nH]c3C)nc(N3CCC4(CCN(CC(F)F)C4)CC3)c12` [Compound 281, 4-(2-(2,2-difluoroethyl)-2,8-diazaspiro[4.5]decan-8-yl)-5-methoxy-2-(5-methyl-1H-pyrazol-4-yl)pyrido[3,4-d]pyrimidine] is 0.015 nM; for `COc1cncc2nc(-c3ccncc3)nc(N3CCC4(CCN(CC5(F)COC5)C4)CC3)c12` [Compound 282, 4-[2-[(3-Fluorooxetan-3-yl)methyl]-2,8-diazaspiro[4.5]decan-8-yl]-5-methoxy-2-(4-pyridyl)pyrido[3,4-d]pyrimidine] it is 0.039 nM; for `COc1cncc2nc(-c3ccncc3)nc(N3CCC4(CCN(CC(C)(O)C(F)(F)F)C4)CC3)c12` (centres unmarked) [Compound 283, 1,1,1-Trifluoro-3-[8-[5-methoxy-2-(4-pyridyl)pyrido[3,4-d]pyrimidin-4-yl]-2,8-diazaspiro[4.5]decan-2-yl]-2-methyl-propan-2-ol] it is 0.096 nM.
Next, `CN1CCC2(CCN(c3nc(-c4ccncc4)nc4c(C#N)nccc34)CC2)C1` [Compound 284, 4-(2-Methyl-2,8-diazaspiro[4.5]decan-8-yl)-2-(pyridin-4-yl)pyrido[3,4-d]pyrimidine-8-carbonitrile]: 4.1 nM.
The compound `c1cc(-c2cc(N3CCC4(CCNC4)CC3)c3ccncc3n2)ccn1` [Example 200, 2-(Pyridin-4-yl)-4-(2,8-diazaspiro[4.5]decan-8-yl)-1,7-naphthyridine] had a Ki of 14.6 nM.
Next, `c1cc(-c2cc(N3CCC4(CCNC4)CC3)c3ccncc3n2)ncn1` [Example 201, 2-(pyrimidin-4-yl)-4-(2,8-diazaspiro[4.5]decan-8-yl)-1,7-naphthyridine trifluoroacetate]: 11.3 nM; `COc1nccc2c(N3CCC4(CCN(C)C4)CC3)nc(-c3ccncc3)nc12` [Example 203, 8-methoxy-4-(2-methyl-2,8-diazaspiro[4.5]decan-8-yl)-2-(pyridin-4-yl)pyrido[3,4-d]pyrimidine]: 80.2 nM.
As to `[O-][n+]1ccc2c(N3CCC4(CCNC4)CC3)nc(-c3ccncc3)nc2c1` [Example 207, 2-(pyridin-4-yl)-4-(2,8-diazaspiro[4.5]decan-8-yl)pyrido[3,4-d]pyrimidine 7-oxide], the Ki worked out at 23 nM.
